In brackets after ≈: the same amount, converted by molar mass. Like-named read-outs stand apart in the source and are kept apart here.
Key:
[1] = tested on: A2780 cells; assay: MTT cytotoxicity assay, A2780; format: cell-based, human
[2] = tested on: HEK293 cells; assay: MTT cytotoxicity assay, HEK293; format: cell-based, human; details: for IC50: MTT assay, 72 h exposure, noncancerous cells; for SF (selectivity factor): IC50(HEK293)/IC50(A2780)
[3] = tested on: Staphylococcus aureus CECT 86 (ATCC 12600); assay: MIC microdilution, S. aureus; format: cell-based; details: planktonic cells; for MIC50 / MIC: Staphylococcus aureus; for MIC50 / S. aureus MIC50: growth inhibited at 50%; for MIC / S. aureus MIC100: lowest concentration completely inhibiting growth; for MIC: read-out: S. aureus MIC100
Method: (§1) Wild-type P. aeruginosa PAO1 strain CECT 4122 (ATCC 15692) and S. aureus CECT 86 (ATCC 12600) were obtained from the Spanish Type Culture Collection (CECT). All strains were routinely cultivated in TSB medium (Sharlab, Spain) at 37 °C. MIC assays were determined by the microdilution method using TSB broth following the method described by the Clinical and Laboratory standards Institute.[94] In brief, compounds were diluted in a 96-well microtiter plate (tissue culture-treated polystyrene; […]

[4] = tested on: Pseudomonas aeruginosa PAO1 CECT 4122 (ATCC 15692); assay: MIC microdilution, P. aeruginosa; format: cell-based; details: planktonic cells; for MIC50 / MIC: Pseudomonas aeruginosa; for MIC50 / P. aeruginosa MIC50: growth inhibited at 50%; for MIC / P. aeruginosa MIC100: lowest concentration completely inhibiting growth; for MIC: read-out: P. aeruginosa MIC100
Method: as §1

[5] = n-octanol/water distribution coefficient, shake-flask; format: physicochemical; details: n-octanol/buffered aqueous solution, pH 7.40, UV-vis; for logD: pH 7.4, read-out: log D7.4
Method: The titrations were carried out under a nitrogen atmosphere.

[6] = tested on: A2780cisR cells; assay: MTT cytotoxicity assay, A2780cisR; format: cell-based, human; details: for IC50: MTT assay, 72 h exposure, cisplatin-resistant A2780cisR, read-out: IC50 A2780cis; for RF (resistance factor): IC50(A2780cisR)/IC50(A2780)
[7] = T = 298 K, I = 0.10 M (KCl)
[8] = tested on: A2780 cells; assay: Cellular accumulation of Cu by ICP-MS; format: cell-based, human; details: 24 h exposure, 1 μM
From the text: The ability of anticancer drugs to penetrate biological membranes, tissues, and barriers underlies their biological, pharmacokinetic, and metabolic properties. These properties can be predicted by calculating physicochemical characteristics of drug candidates using molecular descriptors.[30] […] The results are shown in Table S7 in the Supporting Information. On the basis of the calculated physicochemical parameters, we determined if novel compounds belonged to the drug-like chemical space, which is commonly defined by the well-known Lipinski rule, or to the known drug space (KDS), which includes all small compounds in medical use.[31] […] Following the calculations, we determined the lipophilicity of all compounds experimentally (log D7.4, Tables 1 and 2). It is known that cancer cells accumulate hydrophilic compounds to a smaller extent relative to hydrophobic compounds, thereby affecting their activity. […] As expected, proligands were more lipophilic than the corresponding Cu(II) species, which are positively charged at physiological pH (Figure 3b). […] The lipophilicity of 2–5 increased in the following order 4 < 2 < 3 < 5, and correlated well with their cytotoxicity in cancer cells, with the exception of 3. Subsequently, we determined the total cellular accumulation of Cu in A2780 cells by ICP–MS upon 24 h exposure to 1–6 in comparison with CuCl2 (Table 2). […] The accumulation increased in the order 6 < 1 < 3 < 4 < 2 < 5.
Cellular accumulation of 1–6 was determined in A2780 cells. Cells were seeded into Cellstar 6-well plates (Greiner Bio-one) at a density of 60 × 10^4 cells/well (2 mL per well). After the cells were allowed to resume exponential growth for 24 h, they were exposed to 1–6 at 1 μM for 24 h at 37 °C. The cells were washed twice with 1 mL of PBS and lysed with RIPA lysis buffer for 5–10 min at 4 °C. The cell lysates were scraped from the wells and transferred to separate 1.5 mL microtubes. The supernatant was then collected after centrifugation (13 000 rpm, 4 °C for 15 min) and total protein content of each sample was quantified via Bradford’s assay. Cell lysates were transferred to 2 mL glass vials and then digested with ultrapure 65% HNO3 at 100 °C for 24 h. The resulting solution was diluted to 1 mL (2–4% v/v HNO3) with ultrapure Milli-Q water. Cu content of each sample was quantified by ICP–MS. In was used as an internal standard. Cu and In were measured at m/z 64 and m/z 115, respectively. Metal standards for calibration curve (0, 0.5, 1, 2, 5, 10, 20, and 40 ppb) were freshly prepared before each measurement. All readings were made in triplicates in He mode. For temperature-dependent cellular accumulation experiments, A2780 cells were seeded into 35 n 10 mm tissue culture plates at a density of 60 0 10^4 cells/plate. After the cells were allowed to resume exponential growth for 24 h, they were exposed to 2 at 3 μM for 10, 30, 60, and 120 min at 37 and 4 °C. The subsequent analysis was performed as described above. For energy-dependent experiments, A2780 cells were seeded into 35 5 10 mm tissue culture plates at a density of 1 0 10^6 cells/plate. After the cells were allowed to resume exponential growth for 24 h, they were preincubated with oligomycin (5 μM) for 1 or 4 h or with cycloheximide (100 μM) for 4 h and further co-incubated with 3 μM of 2 at 37 °C. To induce total starvation, after the cells were allowed to resume exponential growth for 24 h, RPMI media was replaced with HBSS, and cells were preincubated in HBSS for 1 h and further incubated with 3 μM of 2 for 1 h at 37 °C. The subsequent analysis was performed as described above.

[9] = Cyclic voltammetry, redox potentials; format: physicochemical; details: first reduction step
Method: To assess the redox properties of 1-6, detailed electrochemical and spectroscopic studies in various solvents were performed using cyclic voltammetry as well as EPR-spectroelectrochemistry. Additionally, the UV-vis spectra of 1-5 were measured (Figure S8). […] The second reduction step occurred at -1.8 V versus Fc^+/Fc (-1.16 V vs NHE) and was less reversible, indicating a ligand-based reduction. […] In aqueous solutions, the reduction potentials shifted to the less negative values, and reduction was less reversible as shown for 2 in Figure S10. […] Cyclic voltammetric experiments were performed as described previously.[46] The cyclic voltammograms were measured in the cathodic region in different solvents (DMSO, methanol, DMSO/H2O). The analytical purity grade LiClO4 (Sigma-Aldrich) and distilled and deionized water were used for preparation of 1 mM aqueous solutions of the investigated complexes 1-6. EPR spectra were recorded with the EMX plus. In situ UV-vis-NIR spectroelectrochemical measurements were performed on a spectrometer (Avantes, Model AvaSpec-2048x14-USB2 in the spectroelectrochemical cell kit ([…]3)) with the Pt-microstructured honeycomb working electrode, purchased from Pine Research Instrumentation. The cell was positioned in the CUV-UV Cuvette Holder (Ocean Optics) connected to the diode-array UV-vis-NIR spectrometer by optical fibers. UV-vis-NIR spectra were processed using the AvaSoft 7.7 software package. Halogen and deuterium lamps were used as light sources (Avantes, Model AvaLight-DH-S-BAL). The in situ EPR spectroelectrochemical experiments were carried out under an argon atmosphere in the EPR flat cell equipped with a large platinum mesh working electrode. The freshly prepared solutions were carefully purged with argon and the electrolytic cell was polarized in the galvanostatic mode directly in the cylindrical EPR cavity TM-110 (ER 4103 TM), and the EPR spectra were measured in situ.

[10] = Homo sapiens, A2780, 72 h exposure

CSC(=N)NN=Cc1ccc(CN2CCOCC2)cn1 [HL^6, 5-(Morpholinomethyl)pyridine-2-carboxaldehyde S-Methylisothiosemicarbazone]
IC50 [1, 10]: 157000 ± 21000 nM | IC50 ([2]; Homo sapiens, HEK293): 89 ± 2 µM | MIC50 [3]: > 500 µg/mL | MIC [3]: > 500 µg/mL | S. aureus MIC50 [3]: >500 µg/mL | MIC50 [4]: > 500 µg/mL | MIC [4]: > 500 µg/mL | logD [5]: 0.84 | IC50 ([6]; Homo sapiens): 426 ± 44 µM

O=C(O)c1cn(C2CC2)c2cc(N3CCNCC3)c(F)cc2c1=O [CPX, ciprofloxacin, reference compound]
MIC50 [3]: 0.5 µg/mL (≈ 1.51 µM) | MIC [3]: 1 µg/mL (≈ 3.02 µM) | MIC50 [4]: 0.5 µg/mL (≈ 1.51 µM) | MIC [4]: 2 µg/mL (≈ 6.04 µM)

NC(=NN=Cc1ccc(CN2CCOCC2)cn1)[S][Cu+] [[CuL]+]
logβ ([7]; determined via EDTA displacement study): 19.04(2)

CSC(=NN=Cc1ccc(CN2CCOCC2)cn1)[NH][Cu][Cl] [complex 6, [Cu(L^6)Cl]]
cellular accumulation A2780 [8]: 0.47 ± 0.08 nmol Cu/mg protein | IC50 ([1]; 72 h exposure): 43000 ± 3000 nM | SF (selectivity factor) [2]: 1.7 | IC50 [2]: 72 µM | S. aureus MIC100 [3]: NA (NA denotes no antibacterial activity detected (>500 μg/mL)) | P. aeruginosa MIC50 [4]: 200 µg/mL | P. aeruginosa MIC100 [4]: NA (NA denotes no antibacterial activity detected (>500 μg/mL)) | log D7.4 [5]: –0.23 ± 0.01 | RF (resistance factor) [6]: 1.4 | IC50 [6]: 62 ± 6 µM

S=C(NN=Cc1ccc(CN2CCOCC2)cn1)Nc1ccccc1 [HL^5, 5-(Morpholinomethyl)pyridine-2-carboxaldehyde 4-Phenylthiosemicarbazone]
IC50 [1, 10]: 310 ± 80 nM | IC50 ([2]; Homo sapiens, HEK293): 0.67 ± 0.06 µM | MIC50 [3]: 10 µg/mL (≈ 28.1 µM) | MIC [3]: 300 µg/mL (≈ 844 µM) | MIC50 [4]: > 500 µg/mL | MIC [4]: > 500 µg/mL | logD [5]: ≥ 2 | IC50 ([6]; Homo sapiens): 1.1 ± 0.2 µM

CN(C)C(=S)N/N=C/c1ccc(CN2CCOCC2)cn1 [HL^2, 5-(Morpholinomethyl)pyridine-2-carboxaldehyde 4,4-Dimethyl-3-thiosemicarbazone]
IC50 [1, 10]: 10 ± 1 nM | IC50 ([2]; Homo sapiens, HEK293): 0.03 ± 0.005 µM | MIC50 [3]: 10 µg/mL (≈ 32.5 µM) | MIC [3]: 400 µg/mL (≈ 1300 µM) | MIC50 [4]: 70 µg/mL (≈ 228 µM) | MIC [4]: 100 µg/mL (≈ 325 µM) | logD [5]: 0.51 | IC50 ([6]; Homo sapiens): 0.035 ± 0.006 µM

NC(=S)NN=Cc1ccc(CN2CCOCC2)cn1 [HL^1, 5-(Morpholinomethyl)pyridine-2-carboxaldehyde Thiosemicarbazone]
IC50 [1, 10]: 7600 ± 1900 nM | IC50 ([2]; Homo sapiens, HEK293): 9.1 ± 1.7 µM | MIC50 [3]: 100 µg/mL (≈ 358 µM) | MIC [3]: > 400 µg/mL | MIC50 [4]: > 500 µg/mL | MIC [4]: > 500 µg/mL | logD [5]: 0.46 | IC50 ([6]; Homo sapiens): 13 ± 1 µM

NC(=NN=Cc1ccc(CN2CCOCC2)cn1)[S][Cu][OH] [[CuLH41]]
logβ ([7]; EPR): 10.22(1) | logβ ([7]; UV-vis via CT bands): 10.42(1) | logβ ([7]; UV-vis via d-d bands): 10.45(1) | logβ ([7]; pH-metry): 10.45(4)

N.N.[Cl][Pt][Cl] [cisplatin, reference compound]
IC50 ([1]; 72 h exposure): 440 ± 130 nM | RF (resistance factor) [6]: 10.5 | IC50 [6]: 4.6 ± 0.3 µM

[Cl][Cu][S]C(=NN=Cc1ccc(CN2CCOCC2)cn1)N1CCOCC1 [complex 4, [Cu(L^4)Cl]]
cellular accumulation A2780 [8]: 3.2 ± 0.7 nmol Cu/mg protein | IC50 ([1]; 72 h exposure): 80 ± 10 nM | SF (selectivity factor) [2]: 3.0 | IC50 [2]: 0.24 ± 0.02 µM | S. aureus MIC50 [3]: 5 µg/mL | S. aureus MIC100 [3]: 10 µg/mL | E1/2 Red1 (DMSO) vs Fc+/Fc ([9]; DMSO, vs Fc+/Fc): –0.80 V | E1/2 Red1 (DMSO) vs NHE ([9]; DMSO, vs NHE (in brackets)): –0.16 V | E1/2 Red1 (MeOH) vs Fc+/Fc ([9]; MeOH, vs Fc+/Fc): –0.49 V | E1/2 Red1 (MeOH) vs NHE ([9]; MeOH, vs NHE (in brackets)): +0.15 V | P. aeruginosa MIC50 [4]: 100 µg/mL | P. aeruginosa MIC100 [4]: 400 µg/mL | log D7.4 [5]: +0.12 ± 0.01 | RF (resistance factor) [6]: 3.3 | IC50 [6]: 0.26 ± 0.04 µM

NC(=NN=Cc1ccc(C[NH+]2CCOCC2)cn1)[S][Cu+] [[CuLH]2+]
logβ ([7]; EPR): 24.00(1) | logβ ([7]; UV-vis via CT bands): 24.00(1) | logβ ([7]; UV-vis via d-d bands): 23.96(1) | logβ ([7]; pH-metry): 24.09(3)

— paper PMC6348444, “New Water-Soluble Copper(II) Complexes with Morpholine–Thiosemicarbazone Hybrids: Insights into the Anticancer and Antibacterial Mode of Action” (Journal of Medicinal Chemistry, 2018)
